{
  "source": "ChEMBL document CHEMBL5532665",
  "about": "(J Med Chem, 2024)",
  "key": {"[1]": {"biological_target": "Kappa-type opioid receptor (Homo sapiens, UniProt P41145)", "sequence (P41145 whole entry)": "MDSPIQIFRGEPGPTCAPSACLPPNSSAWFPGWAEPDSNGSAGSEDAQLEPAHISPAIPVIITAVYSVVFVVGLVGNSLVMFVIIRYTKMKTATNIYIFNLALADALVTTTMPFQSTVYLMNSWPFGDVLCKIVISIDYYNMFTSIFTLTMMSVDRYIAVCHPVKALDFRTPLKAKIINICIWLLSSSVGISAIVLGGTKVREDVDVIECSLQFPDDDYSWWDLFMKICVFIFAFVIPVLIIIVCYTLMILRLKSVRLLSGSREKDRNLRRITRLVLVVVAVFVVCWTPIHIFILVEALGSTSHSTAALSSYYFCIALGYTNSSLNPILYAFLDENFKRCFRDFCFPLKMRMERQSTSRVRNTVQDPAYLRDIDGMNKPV", "test": "Agonist activity at human KOR expressed in CHO-K1 cells co-expressing G-alpha15 upto 100 uM by calcium mobilization assay", "format": "functional, cell-based"}, "Mus musculus [2]": {"system": "Mus musculus", "test": "Antinociceptive activity in Kunming mouse model assessed as latency of tail withdrawal at 144.4 nmol/kg, sc measured for 10 mins by tail-flick test relative to control", "format": "functional"}, "Mus musculus [3]": {"system": "Mus musculus", "test": "Antinociceptive activity in Kunming mouse model assessed as latency of tail withdrawal at 144.4 nmol/kg, sc measured for 30 mins by tail-flick test relative to control", "format": "functional", "details": "0.5 h"}, "Mus musculus [4]": {"system": "Mus musculus", "test": "Antinociceptive activity in Kunming mouse model assessed as latency of tail withdrawal at 144.4 nmol/kg, sc measured for 60 mins by tail-flick test relative to control", "format": "functional", "details": "1 h"}, "Mus musculus [5]": {"system": "Mus musculus", "test": "Antinociceptive activity in Kunming mouse model assessed as latency of tail withdrawal at 144.4 nmol/kg, sc measured for 120 mins by tail-flick test relative to control", "format": "functional", "details": "2 h"}, "Mu-type opioid receptor [6]": {"biological_target": "T1, Mu-type opioid receptor (Homo sapiens, UniProt P35372)", "T1 sequence (P35372 whole entry)": "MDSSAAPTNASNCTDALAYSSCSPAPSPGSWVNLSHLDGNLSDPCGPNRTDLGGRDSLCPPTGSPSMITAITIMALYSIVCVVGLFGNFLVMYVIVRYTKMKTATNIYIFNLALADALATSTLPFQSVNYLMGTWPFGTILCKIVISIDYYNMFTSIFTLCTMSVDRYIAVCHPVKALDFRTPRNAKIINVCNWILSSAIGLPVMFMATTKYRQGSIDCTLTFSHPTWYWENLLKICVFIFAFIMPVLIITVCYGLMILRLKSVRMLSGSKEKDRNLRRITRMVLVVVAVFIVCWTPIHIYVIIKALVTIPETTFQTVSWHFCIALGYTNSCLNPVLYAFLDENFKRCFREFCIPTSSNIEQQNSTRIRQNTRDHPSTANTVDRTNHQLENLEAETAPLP", "test": "Agonist activity at human MOR expressed in CHO-K1 cells co-expressing G-alpha15 by calcium mobilization assay", "format": "functional, cell-based"}, "Mu-type opioid receptor [7]": {"biological_target": "T1, Mu-type opioid receptor", "test": "Agonist activity at human MOR expressed in CHO-K1 cells co-expressing G-alpha15 by calcium mobilization assay relative to control", "format": "functional, cell-based", "details": "filed as agonist"}, "[8]": {"biological_target": "T2, Delta-type opioid receptor (Homo sapiens, UniProt P41143)", "T2 sequence (P41143 whole entry)": "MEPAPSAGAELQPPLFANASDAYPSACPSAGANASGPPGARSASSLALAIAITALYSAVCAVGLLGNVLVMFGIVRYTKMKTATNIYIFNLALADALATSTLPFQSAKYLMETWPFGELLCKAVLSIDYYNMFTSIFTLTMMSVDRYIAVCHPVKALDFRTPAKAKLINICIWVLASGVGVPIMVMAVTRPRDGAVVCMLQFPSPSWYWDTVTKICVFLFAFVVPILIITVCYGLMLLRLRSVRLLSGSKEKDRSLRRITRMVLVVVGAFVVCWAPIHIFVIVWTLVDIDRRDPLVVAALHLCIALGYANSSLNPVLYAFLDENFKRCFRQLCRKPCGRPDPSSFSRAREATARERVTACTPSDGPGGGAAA", "test": "Agonist activity at human DOR expressed in CHO-K1 cells co-expressing G-alpha15 by calcium mobilization assay", "format": "functional, cell-based"}, "[9]": {"biological_target": "T2, Delta-type opioid receptor", "test": "Agonist activity at human DOR expressed in CHO-K1 cells co-expressing G-alpha15 by calcium mobilization assay relative to control", "format": "functional, cell-based", "details": "filed as agonist"}, "Mus musculus [10]": {"system": "Mus musculus", "test": "Antinociceptive activity in Kunming mouse model assessed as latency of tail withdrawal at 1312 nmol/kg, sc measured for 10 mins by tail-flick test relative to control", "format": "functional"}, "Mus musculus [11]": {"system": "Mus musculus", "test": "Antinociceptive activity in Kunming mouse model assessed as latency of tail withdrawal at 1312 nmol/kg, sc measured for 30 mins by tail-flick test relative to control", "format": "functional", "details": "0.5 h"}, "Mus musculus [12]": {"system": "Mus musculus", "test": "Antinociceptive activity in Kunming mouse model assessed as latency of tail withdrawal at 1312 nmol/kg, sc measured for 60 mins by tail-flick test relative to control", "format": "functional", "details": "1 h"}, "Mus musculus [13]": {"system": "Mus musculus", "test": "Antinociceptive activity in Kunming mouse model assessed as latency of tail withdrawal at 1312 nmol/kg, sc measured for 120 mins by tail-flick test relative to control", "format": "functional", "details": "2 h"}, "Mus musculus [14]": {"system": "Mus musculus", "test": "Antinociceptive activity in Kunming mouse model assessed as latency of tail withdrawal at 13881 nmol/kg, sc measured for 10 mins by tail-flick test relative to control", "format": "functional"}, "Mus musculus [15]": {"system": "Mus musculus", "test": "Antinociceptive activity in Kunming mouse model assessed as latency of tail withdrawal at 13881 nmol/kg, sc measured for 30 mins by tail-flick test relative to control", "format": "functional", "details": "0.5 h"}, "Mus musculus [16]": {"system": "Mus musculus", "test": "Antinociceptive activity in Kunming mouse model assessed as latency of tail withdrawal at 13881 nmol/kg, sc measured for 60 mins by tail-flick test relative to control", "format": "functional", "details": "1 h"}, "Mus musculus [17]": {"system": "Mus musculus", "test": "Antinociceptive activity in Kunming mouse model assessed as latency of tail withdrawal at 13881 nmol/kg, sc measured for 120 mins by tail-flick test relative to control", "format": "functional", "details": "2 h"}, "Mus musculus [18]": {"system": "Mus musculus", "test": "Antinociceptive activity in Kunming mouse model assessed as latency of tail withdrawal at 13882 nmol/kg, sc measured for 10 mins by tail-flick test relative to control", "format": "functional"}, "Mus musculus [19]": {"system": "Mus musculus", "test": "Antinociceptive activity in Kunming mouse model assessed as latency of tail withdrawal at 13882 nmol/kg, sc measured for 30 mins by tail-flick test relative to control", "format": "functional", "details": "0.5 h"}, "Mus musculus [20]": {"system": "Mus musculus", "test": "Antinociceptive activity in Kunming mouse model assessed as latency of tail withdrawal at 13882 nmol/kg, sc measured for 60 mins by tail-flick test relative to control", "format": "functional", "details": "1 h"}, "Mus musculus [21]": {"system": "Mus musculus", "test": "Antinociceptive activity in Kunming mouse model assessed as latency of tail withdrawal at 13882 nmol/kg, sc measured for 120 mins by tail-flick test relative to control", "format": "functional", "details": "2 h"}, "Mus musculus [22]": {"system": "Mus musculus", "test": "Antinociceptive activity in Kunming mouse model assessed as latency of tail withdrawal at 132.2 nmol/kg, sc measured for 10 mins by tail-flick test relative to control", "format": "functional"}, "Mus musculus [23]": {"system": "Mus musculus", "test": "Antinociceptive activity in Kunming mouse model assessed as latency of tail withdrawal at 132.2 nmol/kg, sc measured for 30 mins by tail-flick test relative to control", "format": "functional", "details": "0.5 h"}, "Mus musculus [24]": {"system": "Mus musculus", "test": "Antinociceptive activity in Kunming mouse model assessed as latency of tail withdrawal at 132.2 nmol/kg, sc measured for 60 mins by tail-flick test relative to control", "format": "functional", "details": "1 h"}, "Mus musculus [25]": {"system": "Mus musculus", "test": "Antinociceptive activity in Kunming mouse model assessed as latency of tail withdrawal at 132.2 nmol/kg, sc measured for 120 mins by tail-flick test relative to control", "format": "functional", "details": "2 h"}, "Mus musculus [26]": {"system": "Mus musculus", "test": "Antinociceptive activity in Kunming mouse model assessed as latency of tail withdrawal at 15007 nmol/kg, sc measured for 10 mins by tail-flick test relative to control", "format": "functional"}, "Mus musculus [27]": {"system": "Mus musculus", "test": "Antinociceptive activity in Kunming mouse model assessed as latency of tail withdrawal at 15007 nmol/kg, sc measured for 30 mins by tail-flick test relative to control", "format": "functional", "details": "0.5 h"}, "Mus musculus [28]": {"system": "Mus musculus", "test": "Antinociceptive activity in Kunming mouse model assessed as latency of tail withdrawal at 15007 nmol/kg, sc measured for 60 mins by tail-flick test relative to control", "format": "functional", "details": "1 h"}, "Mus musculus [29]": {"system": "Mus musculus", "test": "Antinociceptive activity in Kunming mouse model assessed as latency of tail withdrawal at 15007 nmol/kg, sc measured for 120 mins by tail-flick test relative to control", "format": "functional", "details": "2 h"}},
  "note": "Active and inactive are the calls of the source. The rule behind the calls is not given here.",
  "data": [
    {"smiles": "NC(=O)[C@@H]1CCCN1C(=O)[C@H]1CC(=O)NCCCC[C@@H](NC(=O)[C@@H](N)Cc2ccc(O)cc2)C(=O)NCC(=O)N[C@@H](c2ccccc2)C(=O)N1", "values": [
      {"measurement": "Activity", "setting": "[1]", "result": "inactive"},
      {"measurement": "MPE", "setting": "Mus musculus [2]", "result": 44.4, "unit": "%"},
      {"measurement": "MPE", "setting": "Mus musculus [3]", "result": 94.4, "unit": "%"},
      {"measurement": "MPE", "setting": "Mus musculus [4]", "result": 87.5, "unit": "%"},
      {"measurement": "MPE", "setting": "Mus musculus [5]", "result": 44.4, "unit": "%"}
    ]},
    {"smiles": "CCCC[C@@H]1NC(=O)[C@H](NC(=O)[C@@H](N)Cc2ccc(O)cc2)CCCCNC(=O)C[C@H](C(=O)N2CCC[C@H]2C(N)=O)NC(=O)[C@H](Cc2ccccc2)NC1=O", "values": [
      {"measurement": "EC50", "setting": "Mu-type opioid receptor [6]", "result": 2170, "unit": "nM"},
      {"measurement": "Emax", "setting": "Mu-type opioid receptor [7]", "result": 88.6, "unit": "%"},
      {"measurement": "EC50", "setting": "[8]", "result": 20, "unit": "nM"},
      {"measurement": "Emax", "setting": "[9]", "result": 83.9, "unit": "%"},
      {"measurement": "MPE", "setting": "Mus musculus [10]", "result": 50.4, "unit": "%"},
      {"measurement": "MPE", "setting": "Mus musculus [11]", "result": 90, "unit": "%"},
      {"measurement": "MPE", "setting": "Mus musculus [12]", "result": 75.1, "unit": "%"},
      {"measurement": "MPE", "setting": "Mus musculus [13]", "result": 28, "unit": "%"}
    ]},
    {"smiles": "CN1CC(=O)N[C@@H](Cc2ccccc2)C(=O)N[C@H](C(=O)N2CCC[C@@H]2C(N)=O)CC(=O)NCCCC[C@@H](NC(=O)[C@@H](N)Cc2ccc(O)cc2)C1=O", "values": [
      {"measurement": "MPE", "setting": "Mus musculus [14]", "result": 53.2, "unit": "%"},
      {"measurement": "MPE", "setting": "Mus musculus [15]", "result": 92.7, "unit": "%"},
      {"measurement": "MPE", "setting": "Mus musculus [16]", "result": 75.7, "unit": "%"},
      {"measurement": "MPE", "setting": "Mus musculus [17]", "result": 58.7, "unit": "%"}
    ]},
    {"smiles": "NC(=O)[C@H]1CCCN1C(=O)[C@@H]1CC(=O)NCCCC[C@@H](NC(=O)[C@@H](N)Cc2ccc(O)cc2)C(=O)NCC(=O)N[C@@H](CCc2ccccc2)C(=O)N1", "values": [
      {"measurement": "MPE", "setting": "Mus musculus [18]", "result": 55, "unit": "%"},
      {"measurement": "MPE", "setting": "Mus musculus [19]", "result": 96, "unit": "%"},
      {"measurement": "MPE", "setting": "Mus musculus [20]", "result": 73.7, "unit": "%"},
      {"measurement": "MPE", "setting": "Mus musculus [21]", "result": 25.6, "unit": "%"}
    ]},
    {"smiles": "NC(=O)[C@H]1CCCN1C(=O)[C@@H]1CC(=O)NCCCC[C@@H](NC(=O)[C@@H](N)Cc2ccc(O)cc2)C(=O)NCC(=O)N[C@@H](Cc2ccc3ccccc3c2)C(=O)N1", "values": [
      {"measurement": "MPE", "setting": "Mus musculus [22]", "result": 78.1, "unit": "%"},
      {"measurement": "MPE", "setting": "Mus musculus [23]", "result": 94.8, "unit": "%"},
      {"measurement": "MPE", "setting": "Mus musculus [24]", "result": 76.9, "unit": "%"},
      {"measurement": "MPE", "setting": "Mus musculus [25]", "result": 26.8, "unit": "%"}
    ]},
    {"smiles": "NC(=O)CNC(=O)[C@@H]1CC(=O)NCCCC[C@@H](NC(=O)[C@@H](N)Cc2ccc(O)cc2)C(=O)NCC(=O)N[C@@H](Cc2ccccc2)C(=O)N1", "values": [
      {"measurement": "MPE", "setting": "Mus musculus [26]", "result": 73.4, "unit": "%"},
      {"measurement": "MPE", "setting": "Mus musculus [27]", "result": 92.5, "unit": "%"},
      {"measurement": "MPE", "setting": "Mus musculus [28]", "result": 74.1, "unit": "%"},
      {"measurement": "MPE", "setting": "Mus musculus [29]", "result": 43.1, "unit": "%"}
    ]}
  ]
}
